# Where “and” joins values, the source holds several entries; their conditions need not be identical. Equal entries are not always repeated.
# Assays:
# CYP2C19 = target: T1, CYP2C19 (Homo sapiens, UniProt P33261); experiment: CYP inhibition assay in human liver microsomes; type: in vitro ADME; conditions: no pre-incubation, read-out: IC50 direct inhibition of CYP2C19
# T1 construct: from tissue; host or cells: human liver microsomes
# Experimental: (§1) Each CYP substrate was incubated with human liver microsomes in the absence or presence of evocalcet, and the inhibition of evocalcet for each CYP isozyme was measured.
# CYP1A2 = target: T2, CYP1A2 (Homo sapiens, UniProt P05177); experiment: CYP inhibition assay in human liver microsomes; type: in vitro ADME; conditions: no pre-incubation, read-out: IC50 direct inhibition of CYP1A2
# T2 sequence (P05177 1-516): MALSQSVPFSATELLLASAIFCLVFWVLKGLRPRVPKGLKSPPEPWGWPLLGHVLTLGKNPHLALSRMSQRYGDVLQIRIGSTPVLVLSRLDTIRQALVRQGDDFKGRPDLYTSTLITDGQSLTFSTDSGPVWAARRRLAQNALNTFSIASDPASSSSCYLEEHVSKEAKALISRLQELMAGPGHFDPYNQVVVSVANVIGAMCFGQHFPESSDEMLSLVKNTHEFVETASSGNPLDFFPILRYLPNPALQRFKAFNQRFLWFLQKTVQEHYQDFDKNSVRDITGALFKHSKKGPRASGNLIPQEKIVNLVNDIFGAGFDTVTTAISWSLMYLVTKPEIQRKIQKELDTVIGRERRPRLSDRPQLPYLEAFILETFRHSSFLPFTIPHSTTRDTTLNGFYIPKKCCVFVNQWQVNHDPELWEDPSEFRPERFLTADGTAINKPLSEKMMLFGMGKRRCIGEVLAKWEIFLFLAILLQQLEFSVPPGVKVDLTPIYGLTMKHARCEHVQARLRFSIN
# Experimental: as §1
# CYP2C9 = target: T3, CYP2C9 (Homo sapiens, UniProt P11712); experiment: CYP inhibition assay in human liver microsomes; type: in vitro ADME; conditions: no pre-incubation, read-out: IC50 direct inhibition of CYP2C9
# T3 construct: from tissue; host or cells: human liver microsomes
# Experimental: as §1
# serum PTH = experiment: 5/6 nephrectomized rats study: serum PTH level; type: in vivo, rat; conditions: 5/6 Nx rats; for Serum PTH levels before (day 0) and 24 h after evocalcet administration, Mean / Serum PTH levels after the first administration, Mean: group mean; for Serum PTH levels before (day 0) and 24 h after evocalcet administration: individual rats
# Experimental: Rats were 5/6 nephrectomized in two steps. Under anesthesia (pentobarbital, 50 mg/kg; intraperitoneally) and analgesia (lidocaine; topically), two-thirds of the left kidney was removed, and then the right kidney was removed after a seven-day interval. Seven days after the completion of 5/6 nephrectomy, the FR-2 diet was changed to a high-phosphate diet, containing 0.6% calcium and 0.9% phosphate (Oriental Yeast Co., Ltd., Tokyo, Japan). Approximately 2 weeks after the initiation of the high-phosphate diet, the 5/6 Nx rats were divided into five groups (n = 12/group) matched in terms of their body weight as well as their blood urea nitrogen (BUN) and serum PTH and calcium levels.
# In the single-dose study, blood samples were collected from the tail vein before and at 0.5, 2, 4, 8, 24, 48, and 72 h after the oral administration of vehicle (0.5% methyl cellulose solution) or evocalcet (0.03, 0.1, 0.3, or 1 mg/kg). In the repeated-dose study, vehicle or evocalcet was orally administered to the respective groups once daily for 14 days. Blood samples were obtained from the tail vein before the first administration and after the seventh and last administrations.
# The serum PTH level was measured using a Rat Intact PTH ELISA kit (Immutopics, Inc., San Clemente, CA). The serum calcium, phosphate and BUN levels were measured using an auto analyzer (Hitachi High-Technologies Corporation., Tokyo, Japan) or the following test kits: the Calcium E-test WAKO, the Phospha C-test WAKO, or the Blood Urea nitrogen B-test WAKO (Wako Pure Chemical Industries, Ltd., Osaka, Japan).
# T1 sequence (P33261 whole entry): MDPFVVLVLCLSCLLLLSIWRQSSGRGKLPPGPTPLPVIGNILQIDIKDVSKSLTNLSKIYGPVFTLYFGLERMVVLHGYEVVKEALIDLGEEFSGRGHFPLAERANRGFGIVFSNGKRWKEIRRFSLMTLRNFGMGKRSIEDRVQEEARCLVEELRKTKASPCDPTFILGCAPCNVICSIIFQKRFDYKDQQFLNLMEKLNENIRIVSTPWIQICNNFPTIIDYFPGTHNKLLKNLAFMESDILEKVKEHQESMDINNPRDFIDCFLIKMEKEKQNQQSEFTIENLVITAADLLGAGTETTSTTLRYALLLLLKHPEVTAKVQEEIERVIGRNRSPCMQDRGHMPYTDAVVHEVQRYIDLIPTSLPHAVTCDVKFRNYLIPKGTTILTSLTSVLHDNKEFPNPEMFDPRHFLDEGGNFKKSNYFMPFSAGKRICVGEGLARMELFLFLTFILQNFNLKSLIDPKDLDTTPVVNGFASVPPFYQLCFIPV
# T3 sequence (P11712 whole entry): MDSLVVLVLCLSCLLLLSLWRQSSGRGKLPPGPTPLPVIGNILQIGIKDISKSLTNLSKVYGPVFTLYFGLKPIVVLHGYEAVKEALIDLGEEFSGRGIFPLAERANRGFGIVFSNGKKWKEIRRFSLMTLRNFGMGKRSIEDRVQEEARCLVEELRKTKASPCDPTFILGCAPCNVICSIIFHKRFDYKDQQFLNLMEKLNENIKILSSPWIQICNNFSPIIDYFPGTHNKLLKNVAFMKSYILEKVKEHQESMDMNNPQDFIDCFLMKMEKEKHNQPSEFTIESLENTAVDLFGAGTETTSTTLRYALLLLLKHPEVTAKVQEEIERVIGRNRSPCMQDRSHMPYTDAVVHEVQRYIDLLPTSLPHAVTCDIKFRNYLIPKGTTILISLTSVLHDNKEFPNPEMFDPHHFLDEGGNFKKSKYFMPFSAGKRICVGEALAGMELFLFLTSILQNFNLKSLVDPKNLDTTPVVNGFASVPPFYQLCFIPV
smiles,measurement,setting,value
C[C@@H](N[C@H]1CCN(c2ccc(CC(=O)O)cc2)C1)c1cccc2ccccc12 [evocalcet],IC50,CYP2C19,> 50 µM
same,IC50,CYP1A2,> 50 µM
same,IC50,CYP2C9,> 50 µM
same,Serum PTH levels after the first administration,"serum PTH; 0.03 mg/kg, 0 h, group mean of 12 rats",2235.149
same,Serum PTH levels after the first administration,"serum PTH; 0.03 mg/kg, 0 h, individual rat",3146.838 and 3130.460 and 2411.903 and 1952.597 and 3363.037 and 1097.629
same,Serum PTH levels after the first administration,"serum PTH; 0.03 mg/kg, 0.5 h, group mean of 12 rats",2132.775
same,Serum PTH levels after the first administration,"serum PTH; 0.03 mg/kg, 0.5 h, individual rat",4101.960 and 5220.639 and 2506.611 and 3090.422 and 3558.006 and 125.411
same,Serum PTH levels after the first administration,"serum PTH; 0.03 mg/kg, 2 h, group mean of 12 rats",2186.293
same,Serum PTH levels after the first administration,"serum PTH; 0.03 mg/kg, 2 h, individual rat",4890.509 and 4068.711 and 2185.504 and 3005.600 and 4664.020 and 345.560
same,Serum PTH levels after the first administration,"serum PTH; 0.03 mg/kg, 4 h, group mean of 12 rats",2269.553
same,Serum PTH levels after the first administration,"serum PTH; 0.03 mg/kg, 4 h, individual rat",4679.877 and 4835.119 and 2331.859 and 3883.490 and 3137.288 and 547.391
same,Serum PTH levels after the first administration,"serum PTH; 0.03 mg/kg, 8 h, group mean of 12 rats",2414.885
same,Serum PTH levels after the first administration,"serum PTH; 0.03 mg/kg, 8 h, individual rat",5964.855 and 4334.746 and 2555.658 and 4291.517 and 2662.474 and 769.912
same,Serum PTH levels after the first administration,"serum PTH; 0.03 mg/kg, 24 h, group mean of 12 rats",2792.495
same,Serum PTH levels after the first administration,"serum PTH; 0.03 mg/kg, 24 h, individual rat",4890.842 and 5921.359 and 2295.822 and 3334.469 and 3685.692 and 634.649
same,"Serum PTH levels before (day 0) and 24 h after evocalcet administration, Mean","serum PTH; 0.03 mg/kg, day 0 (Before)",2235.149
same,Serum PTH levels before (day 0) and 24 h after evocalcet administration,"serum PTH; 0.03 mg/kg, day 0 (Before), 0.03 mg/kg",3146.838 and 3130.460 and 2411.903 and 1952.597 and 3363.037 and 1097.629 and 2977.436 and 1709.257 and 736.362 and 1492.356 and 1948.854 and 2855.064
same,"Serum PTH levels before (day 0) and 24 h after evocalcet administration, Mean","serum PTH; 0.03 mg/kg, day 7 (24 h)",1440.297
same,Serum PTH levels before (day 0) and 24 h after evocalcet administration,"serum PTH; 0.03 mg/kg, day 7 (24 h), 0.03 mg/kg",175.760 and 1003.083 and 756.245 and 2355.229 and 3361.800 and 1990.106 and 170.127 and 208.561 and 3498.638 and 332.146 and 1090.222 and 2341.644
same,"Serum PTH levels before (day 0) and 24 h after evocalcet administration, Mean","serum PTH; 0.03 mg/kg, day 14 (24 h)",2303.348
same,Serum PTH levels before (day 0) and 24 h after evocalcet administration,"serum PTH; 0.03 mg/kg, day 14 (24 h), 0.03 mg/kg",4997.693 and 3995.599 and 1879.977 and 3492.362 and 3523.261 and 468.569 and 465.344 and 1621.501 and 608.285 and 1702.644 and 1919.474 and 2965.469
same,Serum PTH levels after the first administration,"serum PTH; 0.1 mg/kg, 0 h, individual rat",2191.024 and 4476.799 and 4734.069 and 3561.219 and 1608.879 and 3394.625 and 2344.750 and 2855.532 and 1478.317 and 2515.323
same,Serum PTH levels after the first administration,"serum PTH; 0.1 mg/kg, 0.5 h, individual rat",697.065 and 166.990 and 643.814 and 188.145 and 87.713 and 1427.254 and 2994.134 and 497.193 and 52.922 and 216.107
same,Serum PTH levels after the first administration,"serum PTH; 0.1 mg/kg, 2 h, individual rat",921.070 and 152.688 and 1274.188 and 268.767 and 48.850 and 837.618 and 3213.565 and 734.412 and 45.617 and 171.332
same,Serum PTH levels after the first administration,"serum PTH; 0.1 mg/kg, 4 h, individual rat",1346.496 and 622.337 and 1091.618 and 881.643 and 178.355 and 1445.792 and 3885.042 and 1344.283 and 585.655 and 429.439
same,Serum PTH levels after the first administration,"serum PTH; 0.1 mg/kg, 8 h, individual rat",1602.872 and 1239.629 and 2688.836 and 1069.819 and 616.193 and 1780.899 and 3893.446 and 2481.366 and 541.217
same,Serum PTH levels after the first administration,"serum PTH; 0.1 mg/kg, 24 h, individual rat",2327.970 and 3050.546 and 5188.511 and 1270.996 and 1634.838 and 3384.643 and 3324.854 and 2293.418 and 169.556
same,"Serum PTH levels before (day 0) and 24 h after evocalcet administration, Mean","serum PTH; 0.1 mg/kg, day 0 (Before)",3005.615
same,Serum PTH levels before (day 0) and 24 h after evocalcet administration,"serum PTH; 0.1 mg/kg, day 0 (Before), 0.1 mg/kg",2191.024 and 4476.799 and 4734.069 and 3561.219 and 1608.879 and 3394.625 and 2344.750 and 2855.532 and 1478.317 and 2515.323 and 3938.529 and 2968.311
same,"Serum PTH levels before (day 0) and 24 h after evocalcet administration, Mean","serum PTH; 0.1 mg/kg, day 7 (24 h)",2408.528
same,Serum PTH levels before (day 0) and 24 h after evocalcet administration,"serum PTH; 0.1 mg/kg, day 7 (24 h), 0.1 mg/kg",1659.111 and 1709.141 and 1368.206 and 692.961 and 2049.745 and 3311.770 and 3632.825 and 4438.329 and 2720.020 and 2668.995 and 3977.154 and 674.076
same,"Serum PTH levels before (day 0) and 24 h after evocalcet administration, Mean","serum PTH; 0.1 mg/kg, day 14 (24 h)",1395.021
same,Serum PTH levels before (day 0) and 24 h after evocalcet administration,"serum PTH; 0.1 mg/kg, day 14 (24 h), 0.1 mg/kg",1994.437 and 1611.022 and 2757.774 and 1453.572 and 176.238 and 2214.760 and 1548.955 and 1921.086 and 242.603 and 1372.697 and 1155.599 and 291.504
same,"Serum PTH levels before (day 0) and 24 h after evocalcet administration, Mean","serum PTH; 0.3 mg/kg, day 0 (before)",2359.764
same,Serum PTH levels before (day 0) and 24 h after evocalcet administration,"serum PTH; 0.3 mg/kg, day 0 (before), 0.3 mg/kg",1632.745 and 2446.532 and 2253.029 and 2449.574 and 3238.325 and 2017.644
same,"Serum PTH levels before (day 0) and 24 h after evocalcet administration, Mean","serum PTH; 0.3 mg/kg, day 7 (24 h)",387.934
same,Serum PTH levels before (day 0) and 24 h after evocalcet administration,"serum PTH; 0.3 mg/kg, day 7 (24 h), 0.3 mg/kg",516.033 and 370.580 and 777.450 and 52.037 and 15.500 and 862.269
same,"Serum PTH levels before (day 0) and 24 h after evocalcet administration, Mean","serum PTH; 0.3 mg/kg, day 14 (24 h)",440.352
same,Serum PTH levels before (day 0) and 24 h after evocalcet administration,"serum PTH; 0.3 mg/kg, day 14 (24 h), 0.3 mg/kg",134.323 and 160.654 and 218.153 and 43.180 and 221.109 and 481.197
same,"Serum PTH levels after the first administration, Mean","serum PTH; 0.3 mg/kg, time 0 h",2359.764
same,"Serum PTH levels after the first administration, Mean","serum PTH; 0.3 mg/kg, time 0.5 h",200.671
same,"Serum PTH levels after the first administration, Mean","serum PTH; 0.3 mg/kg, time 2 h",273.789
same,"Serum PTH levels after the first administration, Mean","serum PTH; 0.3 mg/kg, time 4 h",614.302
same,"Serum PTH levels after the first administration, Mean","serum PTH; 0.3 mg/kg, time 8 h",1297.802
same,"Serum PTH levels after the first administration, Mean","serum PTH; 0.3 mg/kg, time 24 h",1196.310
same,"Serum PTH levels before (day 0) and 24 h after evocalcet administration, Mean","serum PTH; 1 mg/kg, day 0 (before)",2488.277
same,Serum PTH levels before (day 0) and 24 h after evocalcet administration,"serum PTH; 1 mg/kg, day 0 (before), 1 mg/kg",3077.112 and 1497.503 and 1942.068 and 2386.399
same,"Serum PTH levels before (day 0) and 24 h after evocalcet administration, Mean","serum PTH; 1 mg/kg, day 7 (24 h)",641.383
same,Serum PTH levels before (day 0) and 24 h after evocalcet administration,"serum PTH; 1 mg/kg, day 7 (24 h), 1 mg/kg",740.010 and 15.500 and 123.742
same,"Serum PTH levels before (day 0) and 24 h after evocalcet administration, Mean","serum PTH; 1 mg/kg, day 14 (24 h)",594.302
same,Serum PTH levels before (day 0) and 24 h after evocalcet administration,"serum PTH; 1 mg/kg, day 14 (24 h), 1 mg/kg",671.158 and 155.818 and 37.909
same,"Serum PTH levels after the first administration, Mean","serum PTH; 1 mg/kg, time 0 h",2488.277
same,"Serum PTH levels after the first administration, Mean","serum PTH; 1 mg/kg, time 0.5 h",86.013
same,"Serum PTH levels after the first administration, Mean","serum PTH; 1 mg/kg, time 2 h",672.764
same,"Serum PTH levels after the first administration, Mean","serum PTH; 1 mg/kg, time 4 h",302.274
same,"Serum PTH levels after the first administration, Mean","serum PTH; 1 mg/kg, time 8 h",788.660
same,"Serum PTH levels after the first administration, Mean","serum PTH; 1 mg/kg, time 24 h",864.186
same,Doses that steadily decreased the serum PTH level,"serum PTH; once daily oral for 14 days, 24 h after administration on days 7 and 14",≥ 0.3 mg/kg
same,Doses that significantly decreased the serum PTH level,"serum PTH; single oral dose, vs vehicle group",≥ 0.1 mg/kg
